According to US12661410B2, “Compounds for targeted degradation of RET” (C4 Therapeutics, Inc., priority 2020, dated 2026):
Where a chain is given by its changes, count along the chain named.

Tests used:
[1] = biological target: T1, RET(KD: 658-1114 G810R) (Homo sapiens, UniProt P07949, G810R); assay: HiBiT-Degradation, RET G810R degradation assay (Nano-Glo HiBiT Lytic), 293T.165 cells; format: cell-based; settings: for Emax / DC50: 6.0 hours; for Emax: % remaining protein, read-out: 293T.165 RET(KD: 658-1114 G810R) 6.0 hours (Emax); for DC50: half-maximal degradation concentration, read-out: 293T.165 RET(KD: 658-1114 G810R) 6.0 hours (DC50)
T1 construct: 658-1114; expressed in transfected cells; host or cells: 293T.165 (293T cells, generated in-house)
T1 sequence (P07949 658-1114 G810R): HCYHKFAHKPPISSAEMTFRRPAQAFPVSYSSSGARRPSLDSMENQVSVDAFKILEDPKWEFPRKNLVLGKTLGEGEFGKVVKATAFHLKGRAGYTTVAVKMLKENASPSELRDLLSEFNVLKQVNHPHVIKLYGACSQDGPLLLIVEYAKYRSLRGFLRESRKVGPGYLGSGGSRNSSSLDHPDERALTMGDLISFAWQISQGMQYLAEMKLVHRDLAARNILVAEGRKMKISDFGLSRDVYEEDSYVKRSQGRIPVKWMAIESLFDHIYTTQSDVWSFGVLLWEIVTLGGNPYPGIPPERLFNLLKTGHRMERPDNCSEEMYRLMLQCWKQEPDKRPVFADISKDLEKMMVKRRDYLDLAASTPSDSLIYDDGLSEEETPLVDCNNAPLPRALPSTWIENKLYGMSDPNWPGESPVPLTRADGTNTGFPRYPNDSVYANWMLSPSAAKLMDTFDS
How it was run: (§1)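 6 h treatment, 293T.144 (WT) / 293T.165 (G810R) cells ectopically expressing HiBiT-fused RET KD; 11-pt half-log dilution, top 10 μM, n=2. Nano-Glo HiBiT lytic detection, luminescence. Output: DC50, Emax (% protein remaining).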

[2] = biological target: T2, RET (658-1114) (Homo sapiens, UniProt P07949); assay: HiBiT-Degradation, RET wild-type degradation assay (Nano-Glo HiBiT Lytic), 293T.144 cells; format: cell-based; settings: for Emax / DC50: 6.0 hours; for Emax: % remaining protein, read-out: 293T.144 RET (658-1114) 6.0 hours (Emax); for DC50: half-maximal degradation concentration, read-out: 293T.144 RET (658-1114) 6.0 hours (DC50)
T2 construct: 658-1114; expressed in transfected cells; host or cells: 293T.144 (293T cells, generated in-house)
T2 sequence (P07949 658-1114): T1 sequence (P07949 658-1114 G810R) with R153G
How it was run: as §1

| Compound | 293T.165 RET(KD: 658-1114 G810R) 6.0 hours (IP) [nM] [1] | Emax [1] [%] | DC50 [1] [nM] | 293T.144 RET (658-1114) 6.0 hours (IP) [nM] [2] | Emax [2] [%] | DC50 [2] [nM] |
| --- | --- | --- | --- | --- | --- | --- |
| CCC1(c2ccccn2)CCN(c2ccc(-c3nc(-c4cnn(C5CCN(C(=O)CN6CCC(c7ccc(NC8CCC(=O)NC8=O)cc7F)CC6)CC5)c4)cn4ncc(C#N)c34)cn2)CC1 (stereo not drawn) [Compound 110, 6-[1-[1-[2-[4-[4-[(2,6-dioxo-3-piperidyl)amino]-2-fluoro-phenyl]-1-piperidyl]acetyl]-4-piperidyl]pyrazol-4-yl]-4-[6-[4-ethyl-4-(2-pyridyl)-1-piperidyl]-3-pyridyl]pyrazolo[1,5-a]pyrazine-3-carbonitrile] | +++ (<100 nM = +++) | < 30 | < 100 | ++++ (<50 nM = ++++) | < 30 | < 50 |
| N#Cc1cnn2cc(-c3cnn(C4CCN(C(=O)CC5(O)CCN(c6ccc(NC7CCC(=O)NC7=O)cc6F)CC5)CC4)c3)nc(-c3ccc(N4CCC5(CC4)OCc4cccnc45)nc3)c12 (stereo not drawn) [Compound 113, 6-[1-[1-[2-[1-[4-[(2,6-dioxo-3-piperidyl)amino]-2-fluoro-phenyl]-4-hydroxy-4-piperidyl]acetyl]-4-piperidyl]pyrazol-4-yl]-4-(6-spiro[5H-furo[3,4-b]pyridine-7,4′-piperidine]-1′-yl-3-pyridyl)pyrazolo[1,5-a]pyrazine-3-carbonitrile] | ++++ (<50 nM = ++++) | < 30 | < 50 | ++++ (<50 nM = ++++) | < 30 | < 50 |
| COCC1(Cc2ccccn2)CCN(c2ccc(-c3nc(-c4cnn(C5CCN(C(=O)CC6(O)CCN(c7ccc(NC8CCC(=O)NC8=O)cc7F)CC6)CC5)c4)cn4ncc(C#N)c34)cn2)CC1 (stereo not drawn) [Compound 114, 6-[1-[1-[2-[1-[4-[(2,6-dioxo-3-piperidyl)amino]-2-fluoro-phenyl]-4-hydroxy-4-piperidyl]acetyl]-4-piperidyl]pyrazol-4-yl]-4-[6-[4-(methoxymethyl)-4-(2-pyridylmethyl)-1-piperidyl]-3-pyridyl]pyrazolo[1,5-a]pyrazine-3-carbonitrile] | ++++ (<50 nM = ++++) | < 30 | < 50 | ++++ (<50 nM = ++++) | < 30 | < 50 |
| Cc1ccnc(C2CCN(c3ccc(-c4nc(-c5cnn(C6CCN(C(=O)CC7(O)CCN(c8ccc(NC9CCC(=O)NC9=O)cc8F)CC7)CC6)c5)cn5ncc(C#N)c45)cn3)CC2)n1 (stereo not drawn) [Compound 115, 6-[1-[1-[2-[1-[4-[(2,6-dioxo-3-piperidyl)amino]-2-fluoro-phenyl]-4-hydroxy-4-piperidyl]acetyl]-4-piperidyl]pyrazol-4-yl]-4-[6-[4-(4-methylpyrimidin-2-yl)-1-piperidyl]-3-pyridyl]pyrazolo[1,5-a]pyrazine-3-carbonitrile] | ++++ (<50 nM = ++++) | < 30 | < 50 | ++++ (<50 nM = ++++) | < 30 | < 50 |
| N#Cc1cnn2cc(-c3cnn(C4CCN(C(=O)CC5(O)CCN(c6ccc(NC7CCC(=O)NC7=O)cc6F)CC5)CC4)c3)nc(-c3ccc(N4CCN(C(=O)c5ccon5)CC4)nc3)c12 (stereo not drawn) [Compound 116, 6-(1-(1-(2-(1-(4-((2,6-dioxopiperidin-3-yl)amino)-2-fluorophenyl)-4-hydroxypiperidin-4-yl)acetyl)piperidin-4-yl)-1H-pyrazol-4-yl)-4-(6-(4-(isoxazole-3-carbonyl)piperazin-1-yl)pyridin-3-yl)pyrazolo[1,5-a]pyrazine-3-carbonitrile] | ++++ (<50 nM = ++++) | < 30 | < 50 | ++++ (<50 nM = ++++) | < 30 | < 50 |

Next, values leading:

| 293T.165 RET(KD: 658-1114 G810R) 6.0 hours (IP) [nM] [1] | Emax [1] [%] | DC50 [1] [nM] | 293T.144 RET (658-1114) 6.0 hours (IP) [nM] [2] | Emax [2] [%] | DC50 [2] [nM] | Compound |
| --- | --- | --- | --- | --- | --- | --- |
| ++++ (<50 nM = ++++) | < 30 | < 100 | ++++ (<50 nM = ++++) | < 30 | < 50 | N#Cc1cnn2cc(-c3cnn(C4CCN(C(=O)CC5(O)CCN(c6ccc(NC7CCC(=O)NC7=O)cc6F)CC5)CC4)c3)nc(-c3ccc(N4CCN(C(=O)C5CCCCC5)CC4)nc3)c12 (stereo not drawn) [Compound 107, 4-[6-[4-(cyclohexanecarbonyl)piperazin-1-yl]-3-pyridyl]-6-[1-[1-[2-[1-[4-[(2,6-dioxo-3-piperidyl)amino]-2-fluoro-phenyl]-4-hydroxy-4-piperidyl]acetyl]-4-piperidyl]pyrazol-4-yl]pyrazolo[1,5-a]pyrazine-3-carbonitrile] |
| ++++ (<50 nM = ++++) | < 30 | < 50 | ++++ (<50 nM = ++++) | < 30 | < 50 | N#Cc1cnn2cc(-c3cnn(C4CCN(C(=O)CC5(O)CCN(c6ccc(NC7CCC(=O)NC7=O)cc6F)CC5)CC4)c3)nc(-c3ccc(N4CCCN(Cc5ccccc5)CC4)nc3)c12 (stereo not drawn) [Compound 108, 4-[6-(4-benzyl-1,4-diazepan-1-yl)-3-pyridyl]-6-[1-[1-[2-[1-[4-[(2,6-dioxo-3-piperidyl)amino]-2-fluoro-phenyl]-4-hydroxy-4-piperidyl]acetyl]-4-piperidyl]pyrazol-4-yl]pyrazolo[1,5-a]pyrazine-3-carbonitrile] |
| ++++ (<50 nM = ++++) | < 30 | < 50 | ++++ (<50 nM = ++++) | < 30 | < 50 | N#Cc1cnn2cc(-c3cnn(C4CCN(C(=O)CC5(O)CCN(c6ccc(NC7CCC(=O)NC7=O)cc6F)CC5)CC4)c3)nc(-c3ccc(N4CCC(Oc5ccccn5)CC4)nc3)c12 (stereo not drawn) [Compound 109, 6-[1-[1-[2-[1-[4-[(2,6-dioxo-3-piperidyl)amino]-2-fluoro-phenyl]-4-hydroxy-4-piperidyl]acetyl]-4-piperidyl]pyrazol-4-yl]-4-[6-[4-(2-pyridyloxy)-1-piperidyl]-3-pyridyl]pyrazolo[1,5-a]pyrazine-3-carbonitrile] |
| ++++ (<50 nM = ++++) | < 50 | < 50 | ++++ (<50 nM = ++++) | < 30 | < 50 | N#Cc1cnn2cc(-c3cnn(C4CCN(C(=O)CC5(O)CCN(c6ccc(NC7CCC(=O)NC7=O)cc6F)CC5)CC4)c3)nc(-c3ccc(N4CCN(C(=O)C5CCC5)CC4)nc3)c12 (stereo not drawn) [Compound 112, 4-[6-[4-(cyclobutanecarbonyl)piperazin-1-yl]-3-pyridyl]-6-[1-[1-[2-[1-[4-[(2,6-dioxo-3-piperidyl)amino]-2-fluoro-phenyl]-4-hydroxy-4-piperidyl]acetyl]-4-piperidyl]pyrazol-4-yl]pyrazolo[1,5-a]pyrazine-3-carbonitrile] |
| ++++ (<50 nM = ++++) | < 30 | < 50 | ++++ (<50 nM = ++++) | < 30 | < 50 | N#Cc1cnn2cc(-c3cnn(C4CCN(C(=O)CC5(O)CCN(c6ccc(NC7CCC(=O)NC7=O)cc6F)CC5)CC4)c3)nc(-c3ccc(N4CCC(O)(Cc5ccccc5)CC4)nc3)c12 (stereo not drawn) [Compound 117, 4-[6-(4-benzyl-4-hydroxy-1-piperidyl)-3-pyridyl]-6-[1-[1-[2-[1-[4-[(2,6-dioxo-3-piperidyl)amino]-2-fluoro-phenyl]-4-hydroxy-4-piperidyl]acetyl]-4-piperidyl]pyrazol-4-yl]pyrazolo[1,5-a]pyrazine-3-carbonitrile] |
